The values below come from patent US20040086983A1, “Method for producing a heterocyclic compound and an aromatic carboxylic acid having one or more hydroxyl groups, and modified aromatic ring dioxygenase” (priority 2000, published 2004).

Assay [1] has as its system modified biphenyl dioxygenase (modified bphA1::bphA2A3A4) expressed in E. coli (pKF2072). Type of assay: cell-based, Pseudomonas pseudoalcaligenes KF707. Conditions: 5 mg substrate in 70 ml M9 medium, 28° C., 2 to 3 days, ratio of HPLC peak areas (max plot 230 to 350 nm). On the procedure:
(§1) To start the conversion reaction, first, the necessary E. coli transformant cells were removed from the abovementioned glycerol stock culture with a platinum loop, suspended in 4 ml of LB medium containing 150 μg/ml ampicillin (Ap) and cultured at 28° C. for 7 to 8 hours at 175 rpm (pre-culture). […] The cells were recovered by centrifugation at 8,000 rpm for 5 minutes and suspended in 70 ml of M9 medium (supplemented with 150 μg/ml Ap, 0.4% (w/v) glucose, and 10 μg/ml thiamine) containing isopropyl-1-thio-β-D-galactopyranoside (IPTG) at a final concentration of 1 mM and 5 mg of a substrate, and the cultivation was further carried out at 28° C. for 2 to 3 days at 175 rpm. The substrate used was prepared by dissolving it in a solvent, such as ethanol, generally at a concentration of 10 mg/ml and added in an amount of 0.5 ml. On day 2 or 3 of the cultivation, the lipid was extracted by adding 70 ml of methanol and stirring for 30 minutes, and the supernatant was collected by centrifugation at 8,000 rpm for 5 minutes to obtain a crude lipid extract.
(§2) The HPLC analysis was carried out using a Puresil C18 column (4.6 mm×250 mm, Waters) at a rate of 1 ml/min. […] Conditions for development with solvents were as follows:
(§3) Solution A: water/methanol (50/50)
(§4) Solution B: methanol/2-propanol (60/40)
(§5) 0 to 5 min (solution A), 5 to 20 min (solution A)→(solution B) convex gradient (No. 3, Waters), 20 min−(solution B)
(§6) The conversion rate was expressed by a ratio of peak areas monitored at the wave length where the maximum absorbance was observed within the range from 230 to 350 nm (max plot).

Assay [2] has as its system biphenyl dioxygenase derived from the strain Pseudomonas pseudoalcaligenes KF707 (bphA1A2A3A4) expressed in E. coli (pKF6622). Format: cell-based. Conditions: 5 mg substrate in 70 ml M9 medium; for conversion rate: 28° C., 2 to 3 days, ratio of HPLC peak areas (max plot 230 to 350 nm); for conversion products observed: HPLC analysis. How it is done:
as §1, §2, §3, §4, §5, §6

Assay [3] concerns modified bphA1::bphA2A3A4 expressed in Streptomyces lividans TK21 (pIJ-2072). Put plainly: Conversion experiment using recombinant actinomycetes (pIJ-2072), HPLC analysis. Type of assay: cell-based, Pseudomonas pseudoalcaligenes KF707. As to conditions: substrate 0.1 mg/ml, cells 10 mg/ml, 30° C., 2 days. On the procedure:
Plasmid pKF2072 was double-digested with SacI/SmaI, after which a 4.06 kb fragment containing the modified bphA1::bphA2A3A4 was excised. Then, vector pIJ6021 for actinomycetes (see E. Takano, J. White, C. J. Thompson, M. J. Bibb, Gene, 166, 133-137, 1995) was double-digested with NdeI-HindIII, and then the abovementioned 4.06 kb SacI-HindIII fragment and a synthesized DNA 5′-[…]-3′ were added. After annealing, treatment with a Klenow fragment enzyme was followed by a ligation reaction. E. coli JM109 strain was transformed, after which the objective plasmid pIJ-2072 was obtained. The pIJ-2072 was designed so that the modified bphA1 gene is located immediately downstream of a powerful actinomycetes promoter PtipA and its ribosome binding site, being followed by the bphA2A3A4 gene. Namely, the 5′ binding site is […]. The underlined segment is the ribosome binding site, and the modified bphA1 gene starts at ATG from nucleotide 18 to nucleotide 20. This plasmid pIJ-2072 was used to transform actinomycetes Streptomyces lividans TK21 (see D. A. Hopwood, M. J. Bibb, K. F. Chater et al., Genetic Manipulation of Streptomyces: A laboratory Manual, The John Innes Institute, Norwich, 1985). […]

`c1ccc(Cn2ccnc2)cc1` [1-benzylimidazole]: the conversion rate was 97% in assay [1] and 43% in assay [2].

Regarding `c1ccc(-n2cccn2)cc1` [1-phenylpyrazole], the conversion rate in assay [1] is 47%. In addition, the conversion products observed entry in assay [2] is “hardly observed”.

`c1ccc(-n2cccc2)cc1` [1-phenylpyrrole]: the conversion rate in assay [1] and in assay [2] was 100% in each case.

Consider `Oc1ccccc1-c1nc2ccccc2o1` [2-(2-hydroxyphenyl)-benzoxazole], for which the conversion rate in assay [1] was found to be 39%; in assay [2], 25%.

On to `Cc1ccc(-c2ccccn2)cc1` [2-(p-tolyl)pyridine], for which the results for the conversion rate in assay [1] and in assay [2] were 96% and 61%, respectively.

In the case of `c1ccc(Cc2ccccn2)cc1` [2-benzylpyridine], the values for the conversion rate in assay [1] and in assay [2] were 57% and 11%, respectively.

For the compound `CCCCc1cc2ccccc2o1` [2-n-butylbenzofuran], the conversion rate came to 100% in assay [1] and 90% in assay [2].

As to `c1ccc(-c2nc3ccccc3s2)cc1` [2-phenylbenzothiazole], the conversion rate came out at 81% in assay [1] and 36% in assay [2].

Regarding `c1ccc(-c2nc3ccccc3o2)cc1` [2-phenylbenzoxazole], the conversion rate in assay [1] was determined as 100%; in assay [2], 45%.

Take `c1ccc(-c2cc3ccccc3[nH]2)cc1` [2-phenylindole]: the conversion rate in assay [1] turned out to be 71%; in assay [2], 23%.

On to `c1ccc(-c2ccc3ccccc3n2)cc1` [2-phenylquinoline], for which the conversion rate worked out at 89% in assay [1] and 53% in assay [2]. The “converted into its diol derivative, yield” value in assay [3] was around 100%.

On to `Cc1ccn(-c2ccccc2)n1` [3-methyl-1-phenylpyrazole], for which the conversion rate in assay [1] was found to be 100%; in assay [2] it was 63%.

For the compound `Cc1cccnc1-c1ccccc1` [3-methyl-2-phenylpyridine], in assay [1], the conversion rate is reported as 16%. Besides, in assay [2], the conversion products observed entry is “hardly observed”.

For `CCCCCCc1ccsc1` [3-n-hexylthiophene], the conversion rate in assay [1] was 100%; in assay [2] it was 99%.

Take `O=C1CC(c2ccccc2)c2ccccc21` (centres unmarked) [3-phenyl-1-indanone]: the conversion rate in assay [1] came to 97%; in assay [2], 93%.

Consider `c1ccc(Cc2cnsc2)cc1` [4-benzylisothiazole], for which the conversion rate in assay [1] came out at 65%; in assay [2] it was 27%.

In the case of `c1ccc(-c2ccncn2)cc1` [4-phenylpyrimidine], the conversion rate in assay [1] turned out to be 100%. The conversion products observed result in assay [2] is listed as “hardly observed”.
